In patent publication US20180214395A1 (priority 2017, published 2018):
Several values for one entry are separate records, joined by “and”; a condition that tells them apart may be missing. Identical values can stand only once.

Tests used:
[1] = Female urine sniffing test (FUST); assay type: in vivo; conditions: rat; 24 hr after single dose; ketamine 10 mg/kg ip, d-methadone 20 mg/kg sc
[2] = Bond-Lader Visual Analog Scale (cognitive and psychotomimetic effects), SAD and MAD studies
[3] = molecular target: T1, norepinephrine transporter (NET) (Rattus norvegicus, UniProt Q63380); assay: Norepinephrine uptake assay; assay type: biochemical
T1 construct: tissue Eurofins Cerep; host or cells: rat hypothalamus synaptosomes (own knowledge of the vendor's assay)

testosterone = assay: Serum testosterone levels in male MAD 25 mg subjects; assay type: in vivo, human; conditions: for Testosterone Levels, individual male subjects: hydrochloride
[4] = Single ascending dose (SAD) study in healthy volunteers: pharmacokinetics of d-methadone; conditions: both, human, in vivo
[5] = Clinical Opiate Withdrawal Scale (COWS) after abrupt discontinuation, MAD study; conditions: abrupt discontinuation after 10 consecutive days
[6] = Novelty-suppressed feeding test (NSFT); assay type: in vivo; conditions: rat; 72 hr after single dose; ketamine 10 mg/kg ip, d-methadone 20 mg/kg sc
clinical = conditions: both, human, in vivo
[7] = 2-3-5 hours after single dose 5 mg, SAD

T1 sequence (Q63380 1-617): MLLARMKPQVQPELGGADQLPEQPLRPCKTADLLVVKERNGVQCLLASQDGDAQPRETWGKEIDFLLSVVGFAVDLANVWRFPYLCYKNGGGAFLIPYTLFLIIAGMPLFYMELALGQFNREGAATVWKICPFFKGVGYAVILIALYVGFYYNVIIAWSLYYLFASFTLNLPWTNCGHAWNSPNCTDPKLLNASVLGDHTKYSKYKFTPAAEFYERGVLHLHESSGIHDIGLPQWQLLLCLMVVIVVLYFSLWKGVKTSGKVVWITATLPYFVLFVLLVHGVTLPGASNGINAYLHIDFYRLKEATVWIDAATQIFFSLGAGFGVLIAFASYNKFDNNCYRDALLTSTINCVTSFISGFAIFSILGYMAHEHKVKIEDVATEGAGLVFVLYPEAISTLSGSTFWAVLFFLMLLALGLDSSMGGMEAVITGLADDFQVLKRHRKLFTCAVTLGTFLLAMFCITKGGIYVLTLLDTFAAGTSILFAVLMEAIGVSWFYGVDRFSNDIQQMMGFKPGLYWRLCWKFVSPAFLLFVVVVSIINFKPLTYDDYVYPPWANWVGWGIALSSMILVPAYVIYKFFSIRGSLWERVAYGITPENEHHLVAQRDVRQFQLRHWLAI

CCC(=O)C(C[C@H](C)N(C)C)(c1ccccc1)c1ccccc1 [d-methadone]
FUST: time sniffing water [1]: no effect | FUST: time spent sniffing female urine vs vehicle [1]: increased | Bond-Lader VAS mean score: I am feeling drowsy (0: Alert, 100: Drowsy) [2, 7]: 19.1 | Bond-Lader VAS mean score: I am feeling proficient (0: Incompetent, 100: Proficient) [2, 7]: 93.6 | Bond-Lader VAS mean score: I am feeling quick witted (0: Mentally slow, 100: Quick witted) [2, 7]: 91.8 | Bond-Lader Visual Analog Scale, domains of mental alertness and cognitive functions, vs placebo arm ([2]; SAD 5 mg single dose, 2-3-5 hours post dose): improved scores | Cognitive deficits or psychotomimetic effects (Bond-Lader Visual Analog Scale) ([2]; healthy subjects of SAD and MAD studies): did not cause clinically significant cognitive deficits or psychotomimetic effects | IC50 [3]: 8.2 µM | norepinephrine uptake, % inhibition ([3]; 1.0E−05 M): 61.6% | Inhibition of norepinephrine uptake by NET ([3]; […]): significant inhibition | Testosterone serum levels (testosterone; 25 mg once per day for ten days, three male subjects): increased | Testosterone Levels, individual male subjects (testosterone; Day 6, 25 mg once a day for 10 days): 13.1 nmol/L | Testosterone Levels, individual male subjects (testosterone; Day 12, 25 mg once a day for 10 days): 14.4 nmol/L and 10.1 nmol/L | Testosterone Levels, individual male subjects (testosterone; Follow Up (Day 18 ± 1), 25 mg once a day for 10 days): 9.6 nmol/L and 13.6 nmol/L and 8.1 nmol/L | Testosterone Levels, individual male subjects (testosterone; Screening (Day −1), baseline, normal range 7.6-31.4): 7.4 nmol/L and 9.2 nmol/L and 4.1 nmol/L | AUC(0-inf) ([4]; 5 mg): 1190 ng·h/mL | AUC(0-t) ([4]; 5 mg, AUC0-24, SAD 5 mg, mean): 675 ng·h/mL | AUC(0-t) ([4]; 5 mg, AUC0-last, SAD 5 mg, mean): 1250 ng·h/mL | Cmax ([4]; 5 mg, median, SAD 5 mg): 48.4 ng/mL | AUC(0-inf) ([4]; 20 mg): 6230 ng·h/mL | AUC(0-t) ([4]; 20 mg, AUC0-24, SAD 20 mg, mean): 2310 ng·h/mL | AUC(0-t) ([4]; 20 mg, AUC0-last, SAD 20 mg, mean): 4620 ng·h/mL | Cmax ([4]; 20 mg, SAD 20 mg, mean): 163 ng/mL | AUC(0-inf) ([4]; 60 mg): 14100 ng·h/mL | AUC(0-t) ([4]; 60 mg, AUC0-24, SAD 60 mg, mean): 5540 ng·h/mL | AUC(0-t) ([4]; 60 mg, AUC0-last, SAD 60 mg, mean): 13600 ng·h/mL | Cmax ([4]; 60 mg, SAD 60 mg, mean): 404 ng/mL | AUC(0-inf) ([4]; 100 mg): 31100 ng·h/mL | AUC(0-t) ([4]; 100 mg, AUC0-24, SAD 100 mg, mean): 10700 ng·h/mL | AUC(0-t) ([4]; 100 mg, AUC0-last, SAD 100 mg, mean): 29700 ng·h/mL | Cmax ([4]; 100 mg, SAD 100 mg, mean): 739 ng/mL | AUC(0-inf) ([4]; 150 mg): 32600 ng·h/mL | AUC(0-t) ([4]; 150 mg, AUC0-24, SAD 150 mg, mean): 14600 ng·h/mL | AUC(0-t) ([4]; 150 mg, AUC0-last, SAD 150 mg, mean): 37200 ng·h/mL | Cmax ([4]; 150 mg, SAD 150 mg, mean): 1060 ng/mL | AUC(0-t) ([4]; 200 mg, AUC0-24, SAD 200 mg, n=1): 20700 ng·h/mL | AUC(0-t) ([4]; 200 mg, AUC0-last, SAD 200 mg, n=1): 67700 ng·h/mL | Cmax ([4]; 200 mg, SAD 200 mg, n=1): 1530 ng/mL | Withdrawal symptoms (COWS) [5]: did not cause symptoms of withdrawal | NSFT: latency to eat in a novel open field [6]: significantly decreased | AUC(0-inf) (clinical; 25 mg): 13000 ng·h/mL | Tmax (clinical; 25 mg, Tmax): 2.35 h | AUC(0-inf) (clinical; 50 mg): 32000 ng·h/mL | Cmax (clinical; 50 mg): 587 ng/mL | AUC(0-inf) (clinical; 75 mg): 28900 ng·h/mL | Cmax (clinical; 75 mg): 563 ng/mL
